Source: US10905676B2, “Angiotensin II receptor antagonist for the prevention or treatment of systemic diseases in cats” (priority 2017, dated 2021)

Columns and labels:
[1] = human patients, 160 mg daily (80 mg twice daily); cited from earlier work
[2] = system: cats with systemic hypertension; assay: U.S. study of safety and effectiveness in cats with systemic hypertension (Example 4); assay type: in vivo
Text: Of the remaining 288 cats used for the safety summary, 192 received IVP and 96 received ICP from a total of 33 sites within the United States (US) and Canada. […] Overall, both treatment groups were evenly distributed with regard to demographics and baseline characteristics including age, body weight, mSBP, retinal/fundic changes, and laboratory values. The median age of cats enrolled in this study was 14.2 years. Upon enrollment into the study, cats were orally administered telmisartan by their owners, where the owners were given the option of dosing the treatments around or on the food or via syringe. A dosing syringe was provided with demarcations in 0.1 mL increments as well as a dose and volume to be given, rounded to the nearest 0.1 mL (where the calculation was based on kg of body weight for each cat at Visit 1, and the dose was recalculated at each subsequent visit using the current body weight). […] Following Visit 2 (approximately Day 14), the dose was decreased to the 2 mg/kg once daily (SID) maintenance dose. The reduction and maintenance dosage regimen for the cats in the study is set forth in Table 6: The maintenance dose for a cat in the study could be further down-titrated if the mSBP of the cat remained below 120 mmHg from Visit 2 (at about day 14) and onward. […] At Visit 2 and at Unscheduled Visits, blood and urine samples were collected at the discretion of the Investigator. Changes in all parameters were summarized by treatment group as well as by subpopulation, if appropriate. The primary variable for statistical analysis was mSBP reduction from baseline observed at Visit 2. […] Telmisartan was successful in fulfilling both primary criteria for efficacy in cats as described below.

[3] = Pharmacokinetics and absolute bioavailability after single oral or intravenous administration (Example 1)
Protocol: Four clinically healthy male and female domestic short hair cats (HsdCpb: CADS) with a body weight range of 2.6-4.2 kg were used in this study. The animals were randomly allocated to 2 groups, 2 animals per group.
Blood samples were drawn at 0 h (i.e. prior to treatment), 5 (after i. v. injection only), 15, 30 and 60 min as well as 2, 4, 8, 24, 72 and 96 h after each treatment. Clinical observations were also conducted at these time points. Plasma samples were sent to the analytical laboratory and analysed there using a validated method. The plasma levels measured in each animal were subjected to various pharmacokinetic calculations.

[4] = Safety after repeated oral administration over four weeks (Example 3); assay type: in vivo, cats
Protocol: 5-5. 1 kg were used in this study. The animals were allocated to 3 groups, 4 animals per group. […] The bottles with the test/control article looked identical with the exception of the animal no. in order to achieve blinding.
Blood samples for haematology and clinical chemistry were collected from the animals on days-1 (i.e. prior to the first treatment) and again on days 3, 7, 14, 28. Body weights were measured weekly and electrocardiography recording were made on days −1, 14, 21 and 28. A detailed physical examination including determination of rectal temperature and respiratory rate was carried out on days -1, 7, 14, 22 and 28. Systolic blood pressure (once daily) and heart rate (twice daily) were determined five days per week beginning prior to treatment until necropsy. The palatability of the administered article was assessed at various time points throughout treatment using a scoring system. On day 28 of the study, all animals were subjected to necropsy and stomach and kidneys were examined histopathologically. Relevant parameters were analysed using appropriate statistical procedures.

[5] = system: cats with systemic hypertension; assay: Six-month extended-use study in cats with systemic hypertension (Example 5); assay type: in vivo; conditions: for Group mSBP, Mean: baseline 176
Protocol: The primary variables for assessment in this extensive use study were adverse events and change from baseline in retinal photographs. […] No placebo group was used in this study. […] The maintenance dose was down-titrated if the mSBP was below the target range of 120-160 mmHg at any visit. In those cases, the dose was reduced to 1 mg/kg and further reduced to 0.5 mg/kg SID if mSBP remained below the target range. […] All parameters were evaluated by the Investigator for clinical significance. The parameters were then compared to baseline, and changes were summarized by treatment group as well as by subpopulation, if appropriate.

[6] = cats, single i.v. 1 mg/kg, mean, 1 mg/kg
[7] = cats, single oral 1 mg/kg, mean, 1 mg/kg

CCCc1nc2c(C)cc(-c3nc4ccccc4n3C)cc2n1Cc1ccc(-c2ccccc2C(=O)O)cc1 [telmisartan, 4′-[2-n-propyl-4-methyl-6-(1-methylbenzimidazol-2-yl)-benzimidazol-1-ylmethyl]-biphenyl-2-carboxylic acid]
plasma level (Cmax±SD) [1]: about 2800±2400 ng/ml | LSM mSBP change from baseline to Visit 2 ([2]; 1.5 mg/kg BID oral, about Day 14, N 141): −23.3 ΔmmHg | arithmetic mean decrease of mSBP, baseline minus Visit 3 ([2]; Visit 3 (about Day 28), 1.5 mg/kg BID then 2 mg/kg SID): 23.9 mmHg | mean decrease of mSBP ([2]; baseline to Visit 2 (about Day 14)): 23.3 mmHg | Serious Adverse Events (SAEs) attributable ([2]; hypertensive cats, 28 days): very few | percentage of cats with retinal lesions scoring "better" ([2]; retinal photographs vs baseline): 11.5% | time until which mean plasma concentrations increased ([3]; after oral administration): 15 to 30 min | plasma concentrations at 24 h ([3]; both routes, orally and intravenously): No quantifiable plasma concentrations | clearance ([3]; both, domestic short hair (HsdCpb: CADS), plasma, iv, 1 mg/kg): 45.5 mL/min/kg | V ([3]; cats, single i.v. 1 mg/kg, mean): 8.856 L/kg | AUC 0 → ∞ [3, 6]: 384.751 ng·h/mL | t½ [3, 6]: 2.252 h | V/f ([3]; cats, single oral 1 mg/kg, mean): 20.453 L/kg | AUC 0 → ∞ [3, 7]: 150.426 ng·h/mL | t max [3, 7]: 0.438 h | t½ [3, 7]: 2.169 h | clinical signs ([3]; entire course of the study): No specific clinical signs | tolerability ([3]; in vivo, 1 mg/kg): well tolerated | physical and ECG examinations ([4]; all time points): did not reveal treatment-related findings | histopathology of stomach and kidneys ([4]; day 28): no histopathological findings considered to be associated with the treatment | necropsy findings ([4]; day 28): No animal showed any specific finding | body weights, rectal temperature, respiratory and heart rates ([4]; during the course of the study): No significant differences | clinical findings ([4]; entire study period, 1 and 3 mg/kg once daily): No clinical findings clearly attributable to the treatment | haematological and clinical chemistry parameters including differential leukocyte count ([4]; treated groups vs concurrent controls): No treatment-related differences | rescue cases (removed due to mSBP >180 mmHg), share of end of study outcomes ([5]; 8/107 cats): 7.5% | SAEs determined to be possibly attributable to telmisartan ([5]; 11 SAEs): 10.3% | cats with Serious AEs (SAEs) ([5]; 24 cats of 107, six-month study): 22.4% | cats with Non-serious AEs (NSAEs) ([5]; 91 cats of 107, six-month study): 85.0% | cases with SBP maintained within the target range (120-180 mmHg) ([5]; 97/107 cats): 90.7% | cats scored as "better" in the IRIS blood pressure sub-staging ([5]; CKD and CKD and hyperthyroid subpopulations): 83.0% to 98.1 | Mean SBP of Cat 329-454 ([5]; Visit 2 (Week 2), after 3.0 (1.5 BID) mg/kg daily): 108.3 mmHg | Mean SBP of Cat 329-454 ([5]; Visit 3 (Week 4), after 1.0 mg/kg SID): 116.0 mmHg | Mean SBP of Cat 329-454 ([5]; Visit 4 (Week 8), after 0.5 mg/kg SID): 157.7 mmHg | Mean SBP of Cat 329-454 ([5]; Visit 5 (Week 14), after 2.0 mg/kg SID): 100.0 mmHg | Mean SBP of Cat 329-454 ([5]; Visit 6 (Week 20), after 1.0 mg/kg SID): 125.3 mmHg | Mean SBP of Cat 329-454 ([5]; Visit 7 (Week 26), after 2.0 mg/kg SID): 126.0 mmHg | Group mSBP, Median ([5]; Week 4 (n = 107)): 149 mmHg | Maximum mSBP ([5]; Week 4 (n = 107)): 179 mmHg | Maximum mSBP Change from baseline ([5]; Week 4 (n = 107)): 14 ΔmmHg | Mean mSBP Change from baseline ([5]; Week 4 (n = 107)): −29 ΔmmHg | Median mSBP Change from baseline ([5]; Week 4 (n = 107)): −26 ΔmmHg | Minimum mSBP ([5]; Week 4 (n = 107)): 95 mmHg | Minimum mSBP Change from baseline ([5]; Week 4 (n = 107)): −76 ΔmmHg | Group mSBP, Mean ([5]; Week 4 (n = 107)): 148 mmHg | Group mSBP, Median ([5]; Week 8 (n = 102)): 148 mmHg | Maximum mSBP Change from baseline ([5]; Week 8 (n = 102)): 7 ΔmmHg | Mean mSBP Change from baseline ([5]; Week 8 (n = 102)): −28 ΔmmHg | Median mSBP Change from baseline ([5]; Week 8 (n = 102)): −28 ΔmmHg | Minimum mSBP ([5]; Week 8 (n = 102)): 105 mmHg | Minimum mSBP Change from baseline ([5]; Week 8 (n = 102)): −79 ΔmmHg | Group mSBP, Mean ([5]; Week 8 (n = 102)): 148 mmHg | Group mSBP, Median ([5]; Week 14 (n = 92)): 144 mmHg | Maximum mSBP Change from baseline ([5]; Week 14 (n = 92)): 25 ΔmmHg | Mean mSBP Change from baseline ([5]; Week 14 (n = 92)): −33 ΔmmHg | Median mSBP Change from baseline ([5]; Week 14 (n = 92)): −32 ΔmmHg | Minimum mSBP ([5]; Week 14 (n = 92)): 77 mmHg | Minimum mSBP Change from baseline ([5]; Week 14 (n = 92)): −115 ΔmmHg | Group mSBP, Mean ([5]; Week 14 (n = 92)): 142 mmHg | Group mSBP, Median ([5]; Week 20 (n = 81)): 148 mmHg | Maximum mSBP Change from baseline ([5]; Week 20 (n = 81)): 16 ΔmmHg | Mean mSBP Change from baseline ([5]; Week 20 (n = 81)): −30 ΔmmHg | Median mSBP Change from baseline ([5]; Week 20 (n = 81)): −28 ΔmmHg | Minimum mSBP ([5]; Week 20 (n = 81)): 89 mmHg | Minimum mSBP Change from baseline ([5]; Week 20 (n = 81)): −91 ΔmmHg | Group mSBP, Mean ([5]; Week 20 (n = 81)): 145 mmHg | Group mSBP, Median ([5]; Week 26 (n = 73)): 147 mmHg | Maximum mSBP Change from baseline ([5]; Week 26 (n = 73)): 30 ΔmmHg | Mean mSBP Change from baseline ([5]; Week 26 (n = 73)): −25 ΔmmHg | Median mSBP Change from baseline ([5]; Week 26 (n = 73)): −28 ΔmmHg | Minimum mSBP ([5]; Week 26 (n = 73)): 104 mmHg | Minimum mSBP Change from baseline ([5]; Week 26 (n = 73)): −69 ΔmmHg | Group mSBP, Mean ([5]; Week 26 (n = 73)): 150 mmHg | cats with retinal photographs improved compared to baseline ([5]; at all subsequent visits): 6.9% to 7.4 | mean change in SBP from baseline (reduction) ([5]; each visit, Examples 4 and 5, FIG. 2): greater than 20 mmHg | SAE anemia and dehydration ([5]; six-month study): 6.5% | SAE anorexia, vomiting ([5]; six-month study): 5.6% | SAE weight loss ([5]; six-month study): 8.4% | cases rescued due to hypotension ([5]; two cats): 1.9%
